{"source": "patent US20250214947A1", "about": "“3,4-DIHYDROQUINOXALINE-2-CARBOXIMIDE DERIVATIVE COMPOUND AND PHARMACEUTICAL COMPOSITION COMPRISING SAME FOR PREVENTING OR TREATING CANCER DISEASE” (Cureverse Incorporated, priority 2022, published 2025)", "key": {"HDAC8 [1]": {"molecular_target": "T1, HDAC8 (Homo sapiens, UniProt Q9BY41)", "T1 construct": "purchased BPS bioscience", "T1 sequence (Q9BY41 1-377)": "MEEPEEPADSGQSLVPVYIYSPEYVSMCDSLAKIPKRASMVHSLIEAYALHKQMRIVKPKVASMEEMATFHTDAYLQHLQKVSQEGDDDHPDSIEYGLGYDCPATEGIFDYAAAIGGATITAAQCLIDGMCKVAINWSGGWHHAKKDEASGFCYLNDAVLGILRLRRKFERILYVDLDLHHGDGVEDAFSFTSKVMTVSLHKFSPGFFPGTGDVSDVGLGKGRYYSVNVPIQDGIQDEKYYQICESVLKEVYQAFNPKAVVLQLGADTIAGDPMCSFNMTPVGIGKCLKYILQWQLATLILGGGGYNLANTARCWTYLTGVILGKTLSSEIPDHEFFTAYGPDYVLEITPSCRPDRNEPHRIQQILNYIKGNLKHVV", "assay": "HDAC8 inhibitory activity analysis (in vitro), RFU analysis, HDAC Fluorogenic assay kit", "format": "biochemical", "settings": "10 μM; compared with TSA or SAHA", "procedure": "The compound of the Example was diluted to 1 mM (1% DMSO concentration) using DMSO to obtain a final concentration of 10 μM, and prepared by diluting 1/10 with assay buffer. In a 96-well black round-bottom plate, 5 μL of the diluted compound of the Example, 5 μL of the diluted HDAC substrate 2A, 5 μL of BSA (1 mg/mL), 5 µL of the HDAC8 enzyme diluted to an appropriate concentration, and 30 μL of assay buffer were added, and the enzyme reaction was performed at 37° C. for 30 minutes. […] Afterwards, 50 μL of 2×HDAC developer was added to each well. After reacting for 15 minutes at room temperature, the fluorescence values at excitation wavelengths of 350-380 nm and emission wavelengths of 440-460 nm were measured using a microplate reader (Synergy Neo)."}, "HDAC8 [2]": {"molecular_target": "T1, HDAC8", "assay": "Selective inhibitory effect, HDAC Fluorogenic assay kit, HDAC8", "format": "biochemical", "settings": "versus HDAC1, 2, 3, 4, 6, 7, 9, 10, 11; 10 μM", "procedure": "(§3) For analysis, HDAC substrate 3 was diluted in buffer to a concentration of 200 μM and used in HDAC 1, 2, 3, 6, and 10 assays, HDAC substrate 2A was diluted in buffer to a concentration of 200 μM and used in HDAC 4, 7, 9, and 11 assays, HDAC substrate 2A was diluted in buffer to a concentration of 20 μM and used in HDAC 8 assays. For the HDAC 11 assay, a dedicated buffer included in the kit was used separately, and the same buffer was used for the remaining assays. The compound of the Example was diluted to 1 mM (1% DMSO concentration) using DMSO to obtain a final concentration of 10 μM, and prepared by diluting 1/10 with assay buffer. In a 96-well black round-bottom plate, 5 μL of the diluted compound of the Example, 5 μL of the diluted HDAC substrate, 5 μL of BSA (1 mg/ml), 5 μL of the HDAC enzyme diluted to the appropriate concentration, and 30 μL of assay buffer were added, and the enzyme reaction was performed at 37° C. for 30 minutes. […] Afterwards, 50 μL of 2×HDAC developer was added to each well. After reacting for 15 minutes at room temperature, the fluorescence values at excitation wavelengths of 350-380 nm and emission wavelengths of 440-460 nm were measured using a microplate reader (Synergy Neo)."}, "[3]": {"test_system": "PC-3 prostate cancer cells", "assay": "Prostate cancer cell growth inhibition, CCK-8 assay", "format": "cell-based, human", "settings": "various concentrations; 24 hours and 48 hours; FIG. 1", "method": "PC-3, a human-derived prostate cancer cell line, was cultured with RPMI1640 (10% fetal bovine serum, 1% Penicillin Streptomycin) culture medium at 37° C., 5% CO2 condition. All cells in the experiment were subcultured when they reached a confluency of approximately 80% to 90%, and only cells that had not passed 20 passages were used.\nAfter culturing, 10 L CCK-8 reagent was added and the absorbance was measured after 1 hour. The absorbance was measured at 450 nm using a microplate reader [BMG Labtech (Offenburg, Germany)]."}, "Liver cancer cells Huh-7": {"test_system": "Liver cancer cells Huh-7", "assay": "Liver cancer cell growth inhibition, CellTiter-Glo Luminescent Cell Viability Assay", "format": "cell-based", "settings": "various concentrations; day 1; FIG. 6", "method": "In addition, an analysis of liver cancer growth inhibitory activity was performed. Liver cancer cells Huh-7 cells were dispensed in a 96-well plate at 1×10^4 cells/ml, and after 20 hours, PCI34051, Example 27, and Example 35 were added at various concentrations, and cultured for 24 and 48 hours at 37° C. in a 5% CO2 atmosphere. After culturing, 100 l CellTiter-Glo Luminescent Cell Viability Assay reagent was added and the luminescence signal was measured after 0.5-1 hour. The luminescence signal was measured using IVIS [PerkinElmer, (Waltham, USA)]."}, "PC-3 cell lines": {"test_system": "PC-3 cell lines", "assay": "Prostate cancer model, PC-3 cell lines subcutaneously transplanted into nude mice", "format": "in vivo", "settings": "50 mg/kg orally once a day", "method": "(§1) A prostate cancer model was established by subcutaneously transplanting PC-3 cell lines into nude mice, and the mice were divided into two groups (group 1: vehicle administration group (10% DSMO, 30% PEG400, 60% DW), group 2: 50 mg/kg Example 27 compound administration group). The drug was administered orally once a day for 12 times. To evaluate the therapeutic efficacy, tumors were […] before drug administration and on days 3, 6, 8, 10, 12, and 14 after drug administration, and tumor volumes were measured. Tumor volume (mm^3) was calculated as follows (tumor volume (mm^3)=(A×B^2)/2, where A=tumor long axis, B=tumor short axis), and the results are shown in FIG. 2.\nMeanwhile, on day 12 of drug administration, the tumor was removed and its weight was measured, the results are shown in FIG. 3, and a photograph of the removed tumor was taken and shown in FIG. 4."}, "Huh-7 cell lines": {"test_system": "Huh-7 cell lines", "assay": "Liver cancer model, Huh-7 cell lines subcutaneously transplanted into nude mice", "format": "in vivo", "settings": "50 mg/kg once a day", "method": "(§2) In addition, a liver cancer model was established by subcutaneously transplanting Huh-7 cell lines into nude mice. After establishing the liver cancer model, the mice were divided into two groups (group 1: vehicle administration group, group 2: 50 mg/kg Example 27 compound administration group). The drug was administered once a day for 12 times. To evaluate therapeutic efficacy, tumor volume was measured before drug administration and on days 4, 7, 10, 13, and 15 after drug administration. Tumor volume (mm^3) was calculated as follows (tumor volume (mm^3)=(A×B^2)/2, where A=tumor long axis, B=tumor short axis). Body weight was measured before administration and on days 4, 7, 10, 13, and 15 after drug administration during the drug administration period. Tumor was excised on day 15 after drug treatment and body weight was measured."}, "[4]": {"assay": "Body weight of mice during drug administration, prostate cancer model", "format": "in vivo, nude mice", "settings": "50 mg/kg orally once a day; drug administration period; FIG. 5", "method": "as §1"}, "[5]": {"assay": "Body weight of mice during drug administration, liver cancer model", "format": "in vivo, nude mice", "settings": "50 mg/kg once a day; drug administration period; FIG. 7D", "method": "as §2"}, "HDAC1": {"molecular_target": "HDAC1 (Homo sapiens, UniProt Q13547)", "sequence (Q13547 whole entry)": "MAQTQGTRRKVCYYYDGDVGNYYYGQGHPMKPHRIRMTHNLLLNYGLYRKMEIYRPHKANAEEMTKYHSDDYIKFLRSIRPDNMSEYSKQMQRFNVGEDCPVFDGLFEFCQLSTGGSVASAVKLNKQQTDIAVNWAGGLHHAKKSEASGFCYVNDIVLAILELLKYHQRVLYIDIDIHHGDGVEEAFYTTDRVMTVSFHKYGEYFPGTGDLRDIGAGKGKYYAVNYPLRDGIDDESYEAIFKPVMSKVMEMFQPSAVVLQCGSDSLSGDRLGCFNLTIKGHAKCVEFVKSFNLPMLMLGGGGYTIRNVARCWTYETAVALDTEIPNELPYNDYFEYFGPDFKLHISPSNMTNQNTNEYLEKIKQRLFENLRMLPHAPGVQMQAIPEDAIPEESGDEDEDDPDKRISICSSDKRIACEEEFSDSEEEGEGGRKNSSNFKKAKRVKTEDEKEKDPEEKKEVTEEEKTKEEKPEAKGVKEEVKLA", "assay": "Selective inhibitory effect, HDAC Fluorogenic assay kit, HDAC1", "settings": "read-out: HDAC1 enzyme activity (%)", "procedure": "as §3"}, "HDAC3": {"molecular_target": "HDAC3 (Homo sapiens, UniProt O15379)", "sequence (O15379 whole entry)": "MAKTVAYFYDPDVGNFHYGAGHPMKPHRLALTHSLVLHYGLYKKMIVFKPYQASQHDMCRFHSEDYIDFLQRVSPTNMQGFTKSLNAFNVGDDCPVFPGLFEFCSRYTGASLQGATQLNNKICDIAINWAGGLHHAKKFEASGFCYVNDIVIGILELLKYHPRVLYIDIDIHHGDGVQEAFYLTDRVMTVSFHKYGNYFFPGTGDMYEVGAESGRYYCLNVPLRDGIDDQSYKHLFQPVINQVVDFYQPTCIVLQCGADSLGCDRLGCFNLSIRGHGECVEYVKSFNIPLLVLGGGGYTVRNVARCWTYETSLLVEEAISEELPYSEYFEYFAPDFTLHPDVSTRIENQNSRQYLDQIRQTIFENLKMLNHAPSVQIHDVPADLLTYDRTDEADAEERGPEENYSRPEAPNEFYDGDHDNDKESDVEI", "sequence (Q9Y618 395-489 partner limits assumed)": "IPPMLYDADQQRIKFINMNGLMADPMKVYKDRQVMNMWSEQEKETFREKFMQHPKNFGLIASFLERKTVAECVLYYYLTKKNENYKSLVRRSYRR", "assay": "Selective inhibitory effect, HDAC Fluorogenic assay kit, HDAC3", "settings": "read-out: HDAC3 enzyme activity (%)", "procedure": "as §3"}}}
{"smiles": "Cc1cc2nc(C(=O)NCCc3c[nH]c4ccc(O)cc34)c(=O)n(C[C@H](O)[C@H](O)[C@H](O)CO)c2cc1C", "note": "[Example 27, N-(2-(5-hydroxy-1H-indol-3-yl)ethyl)-6,7-dimethyl-3-oxo-4-((2S,3S,4R)-2,3,4,5-tetrahydroxypentyl)-3,4-dihydroquinoxaline-2-carboxamide]", "values": [{"measurement": "inhibitory activity against HDAC8 (in words)", "setting": "HDAC8 [1]", "value": "inhibitory activity similar to TSA or SAHA"}, {"measurement": "selective inhibitory effect on HDAC8 (in words)", "setting": "HDAC8 [2]", "value": "selective and excellent inhibitory activity only against HDAC8"}, {"measurement": "PC-3 cancer cell viability inhibition rate compared with PCI-34051", "setting": "[3]", "value": "superior to that of PCI-34051"}, {"measurement": "PC-3 cell viability (in words)", "setting": "[3]", "value": "effectively reduced the viability of prostate cancer cells in a concentration- and time-dependent manner"}, {"measurement": "Huh-7 cell viability (in words)", "setting": "Liver cancer cells Huh-7", "value": "concentration-dependent inhibition of cancer cell viability"}, {"measurement": "tumor volume (in words)", "setting": "PC-3 cell lines; 12 times, up to day 14, p<0.05 vs vehicle, FIG. 2", "value": "significantly reduced tumor volume growth rate compared to group 1"}, {"measurement": "tumor weight (in words)", "setting": "PC-3 cell lines; tumor removed on day 12, p<0.0005 vs vehicle, FIG. 3", "value": "vehicle administration group (group 1) had a significantly higher tumor weight than the Example 27 compound administration group"}, {"measurement": "tumor volume (in words)", "setting": "Huh-7 cell lines; 12 times, up to day 15, p<0.005 vs vehicle, FIG. 7A", "value": "tumor growth inhibitory effect"}, {"measurement": "tumor weight (in words)", "setting": "Huh-7 cell lines; tumor removed on day 15, p<0.0005 vs vehicle, FIGS. 7B and 7C", "value": "tumor weight of the vehicle group was significantly higher than that of the Example 27 compound administration group"}, {"measurement": "body weight of the mice (in words)", "setting": "[4]", "value": "no rapid weight loss was confirmed"}, {"measurement": "body weight (in words)", "setting": "[5]", "value": "No rapid weight loss was observed"}, {"measurement": "remaining activity at 10 µM", "setting": "HDAC1", "value": 76.2, "unit": "%"}, {"measurement": "remaining activity at 10 µM", "setting": "HDAC3", "value": 73.1, "unit": "%"}]}
